Biological target: PfKRS1 (Plasmodium falciparum, UniProt Q8IDJ8)
Test: PfKRS1 mode of inhibition, pyrophosphate generation (EnzChek)
Assay type: biochemical
Set-up: recombinant PfKRS1 (77–583 and 80–583); His (N); MBP (with TEV site) (N); made in house; host or cells: E. coli BL21 (DE3); codon-optimised gene from Genscript
Procedure: SUPPLEMENTARY INFORMATION glycerol pH 7.5/protease inhibitor tablets/DNAase) was added and the pellets for defrosted at room temperature for approximately 10 min. The slurry was then passed through a Cell Disrupter (Constant Systems) set at 30 KPSI to l yse the cel ls. The s ample w as t hen cent ri fug ed at 40, 000g for 2 0 mi n. The supernatant was then filtered using syringe filters to 0.45 µm. The s upernat ant w as l oaded ont o a 5 ml Hi Trap Ni HP col umn that had been eq ui l i brated wi th Buffer A (25 m M HEP ES /5 00 m M NaC l /2 0 mM Imi dazol e/2 mM DTT/10% Gl ycerol pH 7.5) at 5 ml /mi n usi ng an AKTA Pure system. Once l oaded the column was washed with 10 column volumes buffer A. A 5% step of Buf fer B (25 mM HEPES /50 0 mM NaC l /500 mM I mi daz ol e/2mM D TT/ 10% Glycerol pH 7.5) was then used to wash off His rich contami nati ng protei ns . […]
2.5 PfKR S1, CpKRS and HsKR S Pyr oph osphate Ge ne r ation EnzChe kTM Ki ne tic M e asur e me nts Steady-state kinetic measurements were conduc ted at room temperature using a PheraStar plate re a de r (BM G ). End-poi nt s fo r t he ami noacy l at i on react i on of PfKRS1, which produces inorganic py roph os phat e t hat i s conv ert ed t o t w o mol ecules of i norg ani c phos phat e us i ng a py rophos phat as e enzyme, were measured usi ng the EnzChek™ Pho sphate Assay Ki t, whi ch gives an absorbance read - out at 36 0 nm. […] The reaction was carried out for 6 h (PfKRS1 an d CpKRS) or 1 2 h (HsKRS) at ro om temperature and then the absorbance o f each wel l was read at 360 nm. The s ubs t rat es Km values were determined by varying the concentration of one of the substrates at saturati ng concentrati on of the othe r. […]
where V is the maximal velocity (here expressed as µM/min of phosphate production), S is the substrate concentration a nd K is the Michaelis constant for the substrate (Km). […]

PfKRS1, sequence (Q8IDJ8 entry or part of it): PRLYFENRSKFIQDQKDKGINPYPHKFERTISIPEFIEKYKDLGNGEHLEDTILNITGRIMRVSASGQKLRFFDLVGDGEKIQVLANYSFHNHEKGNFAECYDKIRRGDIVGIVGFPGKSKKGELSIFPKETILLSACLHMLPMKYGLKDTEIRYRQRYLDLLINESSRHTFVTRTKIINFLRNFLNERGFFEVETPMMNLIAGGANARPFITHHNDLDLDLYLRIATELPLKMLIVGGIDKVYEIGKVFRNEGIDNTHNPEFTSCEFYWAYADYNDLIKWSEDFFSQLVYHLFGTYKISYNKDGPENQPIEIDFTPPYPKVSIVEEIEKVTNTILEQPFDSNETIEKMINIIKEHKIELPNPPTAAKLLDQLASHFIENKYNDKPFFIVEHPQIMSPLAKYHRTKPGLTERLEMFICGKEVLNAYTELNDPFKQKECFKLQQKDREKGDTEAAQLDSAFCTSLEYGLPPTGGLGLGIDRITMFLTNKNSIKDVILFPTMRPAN

SMILES: O=C(NCC1(O)CCC(F)(F)CC1)c1cc(=O)c2cc(F)ccc2o1 [Compound 5]
- Ki, linear uncompetitive inhibition vs. L-lysine (EnzChek, saturating ATP): 212 nM
- Ki (EnzChek, saturating L-lysine, read-out: Ki, linear competitive inhibition vs. ATP): 32 nM
- IC50 (saturating concentrations of both substrates): 210 nM
